Each compound was assayed against Diacylglycerol kinase alpha (Homo sapiens, UniProt P23743) (assay: Inhibition of His-tagged recombinant human DGKalpha using DLG as substrate preincubated with substrate and ATP for 1 mins followed by compound addition and measured after 90 mins by ADP-Glo kinase assay).
Chain of Diacylglycerol kinase alpha (P23743 whole entry): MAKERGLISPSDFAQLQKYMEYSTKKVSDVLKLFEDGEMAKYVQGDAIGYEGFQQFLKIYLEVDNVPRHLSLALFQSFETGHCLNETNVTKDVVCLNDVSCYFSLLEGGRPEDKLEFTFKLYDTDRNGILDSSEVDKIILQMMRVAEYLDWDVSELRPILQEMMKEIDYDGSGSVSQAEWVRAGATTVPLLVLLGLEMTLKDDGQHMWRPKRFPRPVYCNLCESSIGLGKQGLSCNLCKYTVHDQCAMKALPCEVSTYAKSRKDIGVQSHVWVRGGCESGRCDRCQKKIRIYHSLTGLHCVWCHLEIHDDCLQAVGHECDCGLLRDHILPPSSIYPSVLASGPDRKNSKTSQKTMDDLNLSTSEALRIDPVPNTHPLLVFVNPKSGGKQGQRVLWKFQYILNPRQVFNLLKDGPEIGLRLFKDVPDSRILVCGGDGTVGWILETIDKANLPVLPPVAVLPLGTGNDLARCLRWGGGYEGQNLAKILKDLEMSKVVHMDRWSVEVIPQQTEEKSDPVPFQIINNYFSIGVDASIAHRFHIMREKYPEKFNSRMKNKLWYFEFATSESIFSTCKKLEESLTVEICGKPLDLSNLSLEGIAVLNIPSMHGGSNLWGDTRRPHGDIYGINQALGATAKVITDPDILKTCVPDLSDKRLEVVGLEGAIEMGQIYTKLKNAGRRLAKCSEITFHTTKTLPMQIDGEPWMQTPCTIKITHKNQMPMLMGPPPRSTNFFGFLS

| Structure (SMILES) | IC50 [nM] |
| --- | --- |
| CCN1CCC2(CCCN(c3c(/C=C(\F)c4nccc(N5CC(F)(F)C5)n4)ccc(Oc4ccccc4F)c3C(F)(F)F)C2)CC1 | ≤ 20 |
| NC[C@H]1CCCN1c1c(/C=C(\F)c2nccc(-c3ccnnc3)n2)ccc(Oc2ccccc2)c1Cl | ≤ 20 |
| F/C(=C\c1ccc(Oc2ccccc2F)c(C(F)(F)F)c1N1CCCC2(CCN(CC3CC3)CC2)C1)c1nccc(-c2cnsc2)n1 | ≤ 20 |

Continued, values first:

| IC50 [nM] | Structure (SMILES) |
| --- | --- |
| ≤ 20 | CCN1CCC2(CC1)CN(c1c(/C=C(\F)c3nccc(-c4ccnnc4)n3)ccc(Oc3ccccc3)c1C(F)(F)F)CCO2 |
| ≤ 20 | COc1cc(F)ccc1Oc1ccc(/C=C(\F)c2nncc(N3CCC(F)(F)C3)n2)c(N2CCC[C@@H](CN)C2)c1Cl |

Source: ChEMBL document CHEMBL6074640, “Novel Heteroaryl Fluoroalkenes as DGK Inhibitors for Treating Cancer, Particularly Metastatic Melanoma” (ACS Med Chem Lett, 2024)
